What all share (assay type): cell-based
The subject of assay [1] is AsPC-1 (K-Ras G12D). Briefly: Potency assay: pERK in AsPC-1 cells. Particulars: Homo sapiens.
For assay [2], the system named is NCI-H358 (K-Ras G12C). Nature of the assay: CellTiter-Glo cell viability assay, H358. Particulars: Homo sapiens, NCI-H358, 120 h. Summed up: (§1)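 Luminescence from CellTiter-Glo serves as the viability read-out after cells are treated with compound for 5 days. Each well's signal is divided by the DMSO average and multiplied by 100, and curves are fitted by four-parameter logistic regression.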
(In ATP-based viability assays light output follows the ATP content of the culture.)

Assay [3] relates to AsPC-1 (K-Ras G12D). Nature of the assay: CellTiter-Glo cell viability assay, AsPC-1. Particulars: Homo sapiens, ASPC1, 120 h. Summed up: as §1
[4] abbreviates: ASPC1, read-out: pERK EC50 (AsPC-1 KRAS G12D).
[5] abbreviates: read-out: H358 Cell Viability IC50, NCI-H358, K-Ras G12C, 5-day treatment.
The mark [6] stands for this setting: read-out: AsPC-1 Cell Viability IC50, AsPC-1, K-Ras G12D, 5-day treatment.
The mark [7] stands for this setting: ASPC1, AsPC-1 cells, K-Ras G12D, read-out: pERK EC50 (AsPC-1 KRAS G12D).
Setting [8] is: NCI-H358, K-Ras G12C, 5-day treatment, read-out: H358 Cell Viability IC50.
The mark [9] stands for this setting: AsPC-1, K-Ras G12D, 5-day treatment, read-out: AsPC-1 Cell Viability IC50.

Where two headings read alike, the source gives them in different places.

What is called EC50 is the concentration at which the effect is half-maximal. Broadly, the IC50 is the concentration at which inhibition is half-maximal. For `CCn1c(-c2cnccc2COC)c2c3cc(ccc31)-c1cc(O)cc(c1)C[C@H](NC(=O)[C@H](C(C)C)N(C)C(=O)CN(C)C(=O)[C@@H]1N[C@@H]1C(=O)OC)C(=O)N1CCC[C@H](N1)C(=O)OCC(C)(C)C2` [Example 49, methyl (2S,3R)-3-((2-(((2S)-1-(((6^3S,4S)-1^1-ethyl-2^5-hydroxy-1^2-(4-(methoxymethyl)pyridin-3-yl)-10,10-dimethyl-5,7-dioxo-6^1,6^2,6^3,6^4,6^5,6^6-hexahydro-1^1H-8-oxa-1(5,3)-indola-6(1,3)-pyridazina-2(1,3)-benzenacycloundecaphane-4-yl)amino)-3-methyl-1-oxobutan-2-yl)(methyl)amino)-2-oxoethyl)(methyl)carbamoyl)aziridine-2-carboxylate], the EC50 in assay [1] (setting [4]) was less than 5000 nM. In addition, the IC50 in assay [2] (setting [5]) and in assay [3] (setting [6]) was 1000 to 10000 nM each time.
On to `CCn1c(-c2cccnc2[C@H](C)OC)c2c3cc(ccc31)-c1cc(O)cc(c1)C[C@H](NC(=O)[C@H](C(C)C)N(C)C(=O)CN(C)C(=O)[C@H]1CN1CC1(C)COC1)C(=O)N1CCC[C@H](N1)C(=O)OCC(C)(C)C2` (stereo partly drawn) [Compound 279], for which the EC50 in assay [1] (setting [4]) is less than 5000 nM. For the same molecule, the IC50 was less than 10 nM in assay [2] (setting [5]) and 100 to 1000 nM in assay [3] (setting [6]).
Taken in the same sequence, the figures for `CCn1c(-c2cccnc2[C@H](C)OC)c2c3cc(ccc31)-c1cc(O)cc(c1)C[C@H](NC(=O)[C@H](C(C)C)N(C)C(=O)CN(C)C(=O)[C@H]1CN1Cc1ccccc1CO)C(=O)N1CCC[C@H](N1)C(=O)OCC(C)(C)C2` (stereo partly drawn) [Compound 156] were less than 5000 nM, less than 10 nM and 100 to 1000 nM.
With `CCn1c(-c2cccnc2[C@H](C)OC)c2c3cc(ccc31)-c1csc(n1)C[C@H](NC(=O)[C@H](C(C)C)N(C)C(=O)N(C)CCN(C)C(=O)[C@H]1CN1)C(=O)N1CCC[C@H](N1)C(=O)OCC(C)(C)C2` [Compound 216], the EC50 in assay [1] (setting [7]) was less than 5000 nM. In addition, the results for the IC50 in assay [2] (setting [8]) and in assay [3] (setting [9]) were 10 to 100 nM and 100 to 1000 nM, respectively.
As for `CCn1c(-c2cccnc2[C@H](C)OC)c2c3cc(ccc31)-c1cc(O)cc(c1)C[C@H](NC(=O)[C@H](C1CCCC1)N1CC[C@]3(CCN(C(=O)[C@H]4CN4)C3)C1=O)C(=O)N1CCC[C@H](N1)C(=O)OCC(C)(C)C2` [Example 175, (2S)-2-((S)-7-((R)-aziridine-2-carbonyl)-1-oxo-2,7-diazaspiro[4.4]nonan-2-yl)-2-cyclopentyl-N-((6^3S,4S)-1^1-ethyl-2^5-hydroxy-1^2-(2-((S)-1-methoxyethyl)pyridin-3-yl)-10,10-dimethyl-5,7-dioxo-6^1,6^2,6^3,6^4,6^5,6^6-hexahydro-1^1H-8-oxa-1(5,3)-indola-6(1,3)-pyridazina-2(1,3)-benzenacycloundecaphane-4-yl)acetamide], the EC50 in assay [1] (setting [7]) is less than 5000 nM. In addition, the results for the IC50 in assay [2] (setting [8]) and in assay [3] (setting [9]) were less than 10 nM and 10 to 100 nM, respectively.
Take `CCn1c(-c2cccnc2[C@H](C)OC)c2c3cc(ccc31)-c1cc(cc(C(F)F)c1)C[C@H](NC(=O)[C@H](C1CCCC1)N(C)C(=O)CN(C)C(=O)[C@@H]1N[C@@H]1C1CC1)C(=O)N1CCC[C@H](N1)C(=O)OCC(C)(C)C2` [Compound 320]: in assay [1] (setting [7]), the EC50 was less than 5000 nM. The IC50 in assay [2] (setting [8]) and in assay [3] (setting [9]) was 100 to 1000 nM each time.
In the case of `CCn1c(-c2cccnc2[C@H](C)OC)c2c3cc(ccc31)-c1cc(O)cc(c1)C[C@H](NC(=O)[C@H](C1CCCC1)N(C)C(=O)CN(C)C(=O)[C@H]1N[C@H]1C1(OC)CC1)C(=O)N1CCC[C@H](N1)C(=O)OCC(C)(C)C2` (single isomer, unassigned) [Compound 322], the EC50 in assay [1] (setting [7]) was less than 5000 nM. In addition, the IC50 in assay [2] (setting [8]) fell in the range of 10 to 100 nM; in assay [3] (setting [9]), 1000 to 10000 nM.
Taken in the same sequence, the figures for `CCn1c(-c2cccnc2[C@H](C)OC)c2c3cc(ccc31)-c1csc(n1)C[C@H](NC(=O)[C@H](C(C)C)N(C)C(=O)N1CCCN(C(=O)[C@@H]3CN3)CC1)C(=O)N1CCC[C@H](N1)C(=O)OCC(C)(C)C2` [Compound 223] were less than 5000 nM, 10 to 100 nM and 100 to 1000 nM.
The corresponding values for `CCn1c(-c2cccnc2[C@H](C)OC)c2c3cc(ccc31)-c1csc(n1)C[C@H](NC(=O)[C@H](C(C)C)N(C)C(=O)N1CCC[C@H](N(C)C(=O)[C@@H]3CN3)C1)C(=O)N1CCC[C@H](N1)C(=O)OCC(C)(C)C2` [Compound 292] are less than 5000 nM, 10 to 100 nM and 1000 to 10000 nM.
The corresponding values for `CCn1c(-c2cccnc2[C@H](C)OC)c2c3cc(ccc31)-c1csc(n1)C[C@H](NC(=O)[C@H](C(C)C)N(C)C(=O)N(C)CC1CN(C(=O)[C@@H]3CN3)C1)C(=O)N1CCC[C@H](N1)C(=O)OCC(C)(C)C2` [Compound 294] are less than 5000 nM, 100 to 1000 nM and 1000 to 10000 nM.
Take `CCn1c(-c2cccnc2[C@H](C)OC)c2c3cc(ccc31)-c1cccc(c1)C[C@H](NC(=O)[C@H](C(C)C)N(C)C(=O)[C@H]1C[C@H](N=C=NCc3ccccc3OC)C1)C(=O)N1CCC[C@H](N1)C(=O)OCC(C)(C)C2` [Compound 77]: the EC50 in assay [1] (setting [7]) is less than 5000 nM. For the same molecule, the IC50 in assay [2] (setting [8]) and in assay [3] (setting [9]) was 100 to 1000 nM each time.
With `CCn1c(-c2cccnc2[C@H](C)OC)c2c3cc(ccc31)-c1cc(O)cc(c1)C[C@H](NC(=O)[C@H](C(C)C)N(C)C(=O)CN(C)C(=O)[C@H]1N[C@@H]1C(F)(F)F)C(=O)N1CCC[C@H](N1)C(=O)OCC(C)(C)C2` [Compound 261], the EC50 in assay [1] (setting [4]) was less than 5000 nM. Moreover, the IC50 is less than 10 nM in assay [2] (setting [5]) and 100 to 1000 nM in assay [3] (setting [6]).
For the molecule `CCn1c(-c2cccnc2[C@H](C)OC)c2c3cc(ccc31)-c1cc(O)cc(c1)C[C@H](NC(=O)[C@H](C(C)C)N(C)C(=O)[C@H]1CCCN(C(=O)[C@H]3CN3)C1)C(=O)N1CCC[C@H](N1)C(=O)OCC(C)(C)C2` [Compound 165], the EC50 in assay [1] (setting [7]) is less than 5000 nM. The IC50 in assay [2] (setting [8]) was less than 10 nM; in assay [3] (setting [9]) it was 1000 to 10000 nM.
Taken in the same sequence, the figures for `CCn1c(-c2cccnc2[C@H](C)OC)c2c3cc(ccc31)-c1cc(O)cc(c1)C[C@H](NC(=O)[C@H](C(C)C)N(C)C(=O)[C@@H]1CN1)C(=O)N1CCC[C@H](N1)C(=O)OCC(C)(C)C2` [Compound 100] were less than 5000 nM, 10 to 100 nM and 100 to 1000 nM.
Take `CCn1c(-c2cccnc2[C@H](C)OC)c2c3cc(ccc31)-c1cc(O)cc(c1)C[C@H](NC(=O)[C@H](C(C)C)N(C)C(=O)CN(C)C(=O)C1CN1CCOC)C(=O)N1CCC[C@H](N1)C(=O)OCC(C)(C)C2` (stereo partly drawn) [Compound 90]: the EC50 in assay [1] (setting [4]) is less than 5000 nM. Moreover, the IC50 in assay [2] (setting [5]) is less than 10 nM; in assay [3] (setting [6]), 100 to 1000 nM.
Taken in the same sequence, the figures for `CCn1c(-c2cccnc2[C@H](C)OC)c2c3cc(ccc31)-c1cc(O)cc(c1)C[C@H](NC(=O)[C@H](C(C)C)N(C)C(=O)CN(C)C(=O)[C@H]1CN1C(C)C)C(=O)N1CCC[C@H](N1)C(=O)OCC(C)(C)C2` (stereo partly drawn) [Compound 142] were less than 5000 nM, less than 10 nM and 100 to 1000 nM.
The corresponding values for `CCn1c(-c2cccnc2[C@H](C)OC)c2c3cc(ccc31)-c1cc(O)cc(c1)C[C@H](NC(=O)[C@H](C(C)C)N(C)C(=O)CN(C)C(=O)[C@H]1CN1)C(=O)N1CCC[C@H](N1)C(=O)OCC(C)(C)C2` [Compound 42A] are less than 5000 nM, less than 10 nM and 100 to 1000 nM.
Regarding `CCn1c(-c2cccnc2[C@H](C)OC)c2c3cc(ccc31)-c1csc(n1)C[C@H](NC(=O)[C@H](C(C)C)N(C)C(=O)N1CCN(C(=O)[C@H]3CN3)[C@@H](C)C1)C(=O)N1CCC[C@H](N1)C(=O)OCC(C)(C)C2` [Compound 297], in assay [1] (setting [7]), the EC50 is less than 5000 nM. Also, the IC50 in assay [2] (setting [8]) is 10 to 100 nM; in assay [3] (setting [9]), 100 to 1000 nM.
For the molecule `CC[C@H]1N[C@H]1C(=O)N(C)CC(=O)N(C)[C@H](C(=O)N[C@H]1Cc2cc(O)cc(c2)-c2ccc3c(c2)c(c(-c2cccnc2[C@H](C)OC)n3CC)CC(C)(C)COC(=O)[C@@H]2CCCN(N2)C1=O)C(C)C` [Compound 262], the EC50 in assay [1] (setting [4]) is less than 5000 nM. Further, the IC50 in assay [2] (setting [5]) was 10 to 100 nM; in assay [3] (setting [6]), 100 to 1000 nM.
The corresponding values for `CCn1c(-c2cccnc2[C@H](C)OC)c2c3cc(ccc31)-c1cc(O)cc(c1)C[C@H](NC(=O)[C@H](C(C)C)N(C)C(=O)CN(C)C(=O)[C@H]1N[C@H]1C1CCC1)C(=O)N1CCC[C@H](N1)C(=O)OCC(C)(C)C2` [Compound 288] are less than 5000 nM, 10 to 100 nM and 100 to 1000 nM.
On to `CCn1c(-c2cccnc2[C@H](C)OC)c2c3cc(ccc31)-c1csc(n1)C[C@H](NC(=O)[C@H](C1CCCC1)N(C)C(=O)CN(C)C(=O)[C@H]1CN1)C(=O)N1CCC[C@H](N1)C(=O)OCC(C)(C)C2` [Compound 132], for which the EC50 in assay [1] (setting [7]) is less than 5000 nM. The IC50 in assay [2] (setting [8]) was in the range of 10 to 100 nM; in assay [3] (setting [9]), 1000 to 10000 nM.
Taken in the same sequence, the figures for `CCn1c(-c2cccnc2[C@H](C)OC)c2c3cc(ccc31)-c1cc(O)cc(c1)C[C@H](NC(=O)[C@H](C1CCCC1)N(C)C(=O)CN(C)C(=O)[C@H]1N[C@H]1C1(C#N)CC1)C(=O)N1CCC[C@H](N1)C(=O)OCC(C)(C)C2` [Compound 316] were less than 5000 nM, 10 to 100 nM and 1000 to 10000 nM.
For `CCn1c(-c2cccnc2[C@H](C)OC)c2c3cc(ccc31)-c1cc(O)cc(c1)C[C@H](NC(=O)[C@H](C(C)C)N(C)C(=O)CNC(=O)[C@@H]1N[C@@H]1C1CC1)C(=O)N1CCC[C@H](N1)C(=O)OCC(C)(C)C2` [Compound 141], the EC50 in assay [1] (setting [4]) was less than 5000 nM. Also, the IC50 in assay [2] (setting [5]) and in assay [3] (setting [6]) was 100 to 1000 nM in each case.

The values above are taken from patent US11739074B2, “Ras inhibitors” (Revolution Medicines, Inc., priority 2019, dated 2023).
